Reference: ChEMBL document CHEMBL1128165, “Quinuclidine-based NK1 antagonists, the role of the benzhydryl” (Bioorg Med Chem Lett, 1995)

What follows are compounds tested against Substance-P receptor (Homo sapiens, UniProt P25103, H197A) (assay: Binding affinity towards human mutant NK-1 receptor in which His-197 has been replaced by alanine (H197A)).
Chain of Substance-P receptor (Homo sapiens, UniProt P25103, H197A) (P25103 whole entry H197A): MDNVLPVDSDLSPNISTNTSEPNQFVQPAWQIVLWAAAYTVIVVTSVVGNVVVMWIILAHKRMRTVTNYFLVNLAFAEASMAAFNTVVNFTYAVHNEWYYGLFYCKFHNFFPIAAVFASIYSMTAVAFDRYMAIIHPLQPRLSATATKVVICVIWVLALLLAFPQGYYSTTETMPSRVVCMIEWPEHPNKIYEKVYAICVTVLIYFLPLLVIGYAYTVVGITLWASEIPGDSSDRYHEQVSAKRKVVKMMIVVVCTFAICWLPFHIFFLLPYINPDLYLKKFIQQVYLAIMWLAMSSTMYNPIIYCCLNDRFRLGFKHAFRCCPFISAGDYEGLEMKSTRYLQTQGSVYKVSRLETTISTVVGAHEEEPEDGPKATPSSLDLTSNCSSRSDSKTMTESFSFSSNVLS

Q: Which IC50 does the source give for `Cc1cc(C)cc(CO[C@H]2C3CCN(CC3)[C@H]2Cc2ccccc2)c1` here?
A: 845 nM

Q: How did the IC50 turn out when `FC(F)(F)c1cc(CO[C@H]2C3CCN(CC3)[C@H]2C(c2ccccc2)c2ccccc2)cc(C(F)(F)F)c1` [L-709210] was run?
A: 330 nM

Q: For `FC(F)(F)c1cc(CO[C@H]2C3CCN(CC3)[C@H]2Cc2ccccc2)cc(C(F)(F)F)c1`, which IC50 is on record?
A: 500 nM

Q: For `Cc1cc(C)cc(CO[C@H]2C3CCN(CC3)[C@H]2C(c2ccccc2)c2ccccc2)c1` [L-706125], which IC50 is on record?
A: 196 nM

The compounds below were run against Substance-P receptor (Homo sapiens, UniProt P25103) (assay: Binding affinity towards wild type human Wild-type tachykinin receptor 1 expressed in Chinese hamster ovary cells).
Assay type: cell-based

Chain of Substance-P receptor (Homo sapiens, UniProt P25103) (P25103 whole entry): as the sequence (P25103 whole entry H197A) above, with A197H counted along it

Q: How did the IC50 turn out when `Cc1cc(C)cc(CO[C@H]2C3CCN(CC3)[C@H]2Cc2ccccc2)c1` was run?
A: 292 nM

Q: With `FC(F)(F)c1cc(CO[C@H]2C3CCN(CC3)[C@H]2C(c2ccccc2)c2ccccc2)cc(C(F)(F)F)c1` [L-709210] as the compound, how does the IC50 read?
A: 2 nM

Q: How did the IC50 turn out when `FC(F)(F)c1cc(CO[C@H]2C3CCN(CC3)[C@H]2Cc2ccccc2)cc(C(F)(F)F)c1` was run?
A: 197 nM

Q: Which IC50 does the source give for `Cc1cc(C)cc(CO[C@H]2C3CCN(CC3)[C@H]2C(c2ccccc2)c2ccccc2)c1` [L-706125] here?
A: 2 nM
